Assay results from US6699850B2, “Compositions and methods for inhibiting bone resorption” (Merck & Co., Inc., priority 1998, dated 2004).

Experiments:
[1] = tested on: 34 kDa Mst Kinase fragment; assay: In-gel kinase assay of Mst kinase activities in cultured osteoclast-like cells; assay type: cell-based, Murine; conditions: for blocking of activation of Mst1 cleavage by alendronate monosodium trihydrate: FIG. 5 lanes 3 and 4, 10 μM isoprenoid with 30 μM alendronate monosodium trihydrate; for activation of the 34 kDa Mst Kinase fragment: osteoclast like cells
Procedure: (§1) Murine co-cultures of osteoblasts and marrow cells are prepared using the methods of Wesolowski, et al., Exp Cell Res, (1995), 219, pp. 679-686, which is incorporated by reference herein in its entirety. Bone marrow cells are harvested from 6-week-old male Balb/C mice by flushing marrow spaces of freshly isolated long bones (tibiae and femora) with α-MEM (minimal essential media) containing penicillin/streptomycin (100 I.U./ml of each and 20 mM Hepes buffer). The bone marrow cells are suspended in α-MEM and the cells are filtered through an approximately 70 μm cell strainer. The filtrate is centrifuged at about 300×g for about 7 minutes. The resulting pellet is resuspended in α-MEM supplemented with fetal calf serum (10% v/v) and 10 nM 1, 25-(OH)2 vitamin D3. These bone marrow isolates are added to sub-confluent monolayers of osteoblastic MB 1.8 cells in cell culture plates and cultured for 7 days at 37 °C. in the presence of 5% CO2. Culture media is replenished ever other day. Fusion of the osteoclast precursor cells from bone marrow (with each other) to form multinucleated osteoclast-like cells typically occurs after about 7 days. Osteoclast-like cells are enriched by sequential treatment with collagenase (1 mg/mL in phosphate buffered saline) for one hour at 37° C. and EDTA (0.2 g/L in phosphate buffered saline) for 20 min at 37° C. Non-adherent cells are rinsed away by washing with phosphate buffered saline. Osteoclast-like cells which are resistant to the sequential treatments are present at about 95% purity and are maintained in α-MEM supplemented with fetal calf serum (10% v/v), 10 nM 1,25-(OH)2 vitamin D3, macrophage-colony-stimulating factor (5 ng/mL).
The compounds to be evaluated are prepared as a solution of the desired concentration in α-MEM. Examples of compounds that can be evaluated include nitrogen-containing bisphosphonates such as alendronate monosodium trihydrate, as well as compounds that block the effects of these inhibitors, such as isoprenoid compounds, for example, geranylgeraniol, geranylgeranyl phosphate, geranylgeranyl pyrophosphate, geranylgeranyl acetate, geranylgeranyl propionate, geranylgeranyl benzoate, geranylgeranyl lactate, geranylgeranyl succinate, and geranylgeranyl glutarate. Combinations of compounds can also be evaluated. The solutions of the compounds to be evaluated are added to the cultures for a time period of 17-24 hours. No treatment controls (controls not treated with compounds) are prepared by adding equivalent volumes of α-MEM to the control dishes.
Cells are then harvested and Iysed in a HEPES (N-(2-hydroxyethyl)piperazine-N′-(2-ethansulfonic acid) or Tris buffer containing the following: β-glycerophosphate (50 mM); Na3VO4 (1 mM); NaF (1 mM); Microcystin LR (1 μM); leupeptin (10 μg/ml); aprotinin (10 μg/ml); phenylmethyl sulfonylfluoride (1 mM). Protein concentrations are determined for each lysate and 5-20 μg are loaded into each lane of a SDS-PAGE (sodium dodecyl sulfate-polyacrylamide gel electrophoresis) gel containing Myelin Basic Protein, or another kinase substrate, which has been polymerized into the gel at a concentration between 50-400 μg/ml. Molecular weight standards are also loaded into one or more lanes of the gels. In-gel kinase assays are run according to a standard procedure based on Kameshita and Fujisawa, 1989 (Anal. Biochem. 183:139-143) and of Gotoh et al., 1990 (Eur. J. Biochem. 193: 661-669), both references being incorporated by reference herein in their entirety. The proteins are electrophoresed in the above gels. The gels are then successively soaked in 50 mM HEPES, pH 7.6; 5 mM 2-mercaptoethanol and each of the following (for each wash): (a) 20% isopropanol; (b) no additions; (c) urea (6 M); (d) Urea (3 M); (e) Urea (0.75 M); and Tween 20 (0.05% vol:vol). Kinase reactions are then run by first soaking the gels in 20 mM HEPES, pH 7.6; 20 mM MgCl2; 2 mM DTT and then in the same buffer containing 0.02 M ATP (non-radioactive) with ca. 1000 cpm/pmol ^32P-γ-ATP. […]

[2] = tested on: osteoclast function; assay: Osteoclast cell cultures and bone resorption assays; assay type: cell-based; conditions: with a bisphosphonate such as alendronate monosodium trihydrate; no concentration stated
Procedure: The compounds are dosed both 5 and 6 days after establishing the culture, and the formation of 250 μm cells are counted using an inverted microscope with a 10×objective and quantitated versus a no treatment control.
as §1, with “Osteoclast-like cells are enriched by sequential treatment with collagenase (1 mg/mL in phosphate buffered saline) for one hour at 37° C. and EDTA (0.2 g/L in phosphate buffered saline) for 20 min at 37° C. Non-adherent cells are rinsed away by washing with phosphate buffered saline. Osteoclast-like cells which are resistant to the sequential treatments are present at about 95% purity and are maintained in α-MEM supplemented with fetal calf serum (10% v/v), 10 nM 1,25-(OH)2 vitamin D3, macrophage-colony-stimulating factor (5 ng/mL).” left out

Compound	blocking of activation of Mst1 cleavage by alendronate monosodium trihydrate [1]	activation of the 34 kDa Mst Kinase fragment ([1]; FIG. 2, 30 μM, about 17 hours)	activation of the 34 kDa Mst Kinase fragment ([1]; FIG. 2, 100 μM, about 17 hours)	further results
CC(C)=CCCC(C)=CCCC(C)=CCO [farnesol]	partially blocked	–	–	–
CC(O)(P(=O)(O)O)P(=O)(O)O [etidronate disodium]	–	fail to activate	fail to activate	–
CC(C)=CCC/C(C)=C/CC/C(C)=C/CC/C(C)=C/CO [geranylgeraniol]	blocked	–	–	effect on bisphosphonate-induced inhibition of osteoclast function [2]: block the inhibitory effect; effect on activation of the 34 kDa Mst Kinase fragment by alendronate monosodium trihydrate ([1]; FIG. 4 lane 3, 10 μM geranylgeraniol with 30 μM alendronate monosodium trihydrate): negates this activation; effect on cleavage of Mst induced by bisphosphonates such as alendronate monosodium trihydrate ([1]; osteoclasts, no concentration stated): prevent the cleavage of Mst
NCCCC(O)(P(=O)(O)O)P(=O)(O)O [alendronate monosodium trihydrate, 4-amino-1-hydroxybutylidene-1,1-bisphosphonic acid monosodium trihydrate]	–	activation	activation	activation of 34 kDa Mst Kinase fragment immunoprecipitated by anti-Mst and anti-Krs antibody cocktail ([1]; FIG. 1 lane 3, 30 μM, osteoclast-like cells, in-gel kinase assay after immunoprecipitation): activated; activation of the 34 kDa Mst Kinase fragment ([1]; FIG. 4 lane 2, 30 μM): activation; activation of Mst1 cleavage ([1]; FIG. 5 lane 2, 30 μM, myelin basic protein as substrate): activation of Mst1 cleavage
O=P(O)(O)C(Sc1ccc(Cl)cc1)P(=O)(O)O [tiludronate disodium]	–	fail to activate	fail to activate	–
